PubChem BioAssay (NCI)
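The concentration for 50% growth inhibition is given as GI50. TGI marks complete inhibition of growth.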

Assays:
Assay in all cases: NCI tumour cell line growth inhibition, 384-well format
[1] = system: SNB-19 CNS
[2] = system: HCT-116 colon
[3] = system: SK-MEL-5 melanoma
[4] = system: NCI-H322M lung
[5] = system: BT-549 breast
[6] = system: SR leukemia
[7] = system: SK-MEL-28 melanoma
[8] = system: NCI/ADR-RES ovarian
[9] = system: 786-0 renal
[10] = system: SW-620 colon
[11] = system: HCC-2998 colon
[12] = system: SF-295 CNS
[13] = system: U251 glioblastoma

`COC(=O)c1ccc2c(C(=Nc3ccc(N(C)C(=O)CN4CCN(C)CC4)cc3)c3ccccc3)c(O)[nH]c2c1` gave a GI50 [1] of 1.44 µM, a TGI [1] of 4.32 µM and a GI50 [2] of 1.4 µM. For the same compound, the TGI [2] was 2.72 µM, the GI50 [3] was 2.19 µM and the TGI [3] was 3.64 µM. The GI50 [4] was 1.41 µM, the TGI [4] was 3.36 µM and the GI50 [5] was 1.49 µM. For the same compound, the TGI [5] was 2.83 µM, the GI50 [6] was 0.734 µM and the TGI [6] was 2.02 µM. It also gave a GI50 [7] of 1.69 µM, a TGI [7] of 3.08 µM and a GI50 [8] of 14.6 µM. The TGI [8] was > 100 µM, the GI50 [9] was 1.4 µM and the TGI [9] was 2.79 µM. For the same compound, the GI50 [10] was 1.82 µM, the TGI [10] was 3.25 µM and the GI50 [11] was 1.58 µM. It also gave a TGI [11] of 2.96 µM, a GI50 [12] of 1.83 µM and a TGI [12] of 3.25 µM. The GI50 [13] was 1.46 µM and the TGI [13] was 2.86 µM.
